Patent US8030478B2, “Method for nucleic acid replication and novel artificial base pairs” (priority 2005, dated 2011)
Where two headings read alike, the source gives them in different places.

Target: T7 RNA polymerase (Escherichia phage T7, UniProt P00573)
Conditions: for Composition of nucleotide incorporated as 5′ neighbor of A: Cp / Composition of nucleotide incorporated as 5′ neighbor of A: Up / Composition of nucleotide incorporated as 5′ neighbor of A: Ap / Composition of nucleotide incorporated as 5′ neighbor of A: Np (Pa′p) / Composition of nucleotide incorporated as 5′ neighbor of A: Gp: [α-32P]ATP; for Composition of nucleotide incorporated as 5′ neighbor of U: Np (Pa′p) / Composition of nucleotide incorporated as 5′ neighbor of U: Ap / Composition of nucleotide incorporated as 5′ neighbor of U: Gp / Composition of nucleotide incorporated as 5′ neighbor of U: Up / Composition of nucleotide incorporated as 5′ neighbor of U: Cp: [α-32P]UTP
[1] = Entry 7, template temp35Ds-3, natural NTP 1 mM, Pa′ 1 mM, theoretical [0]
[2] = Entry 7, template temp35Ds-3, natural NTP 1 mM, Pa′ 1 mM, theoretical [1]
[3] = Entry 8, template temp35Ds-3, natural NTP 1 mM, Pa′ 3 mM, theoretical [0]
[4] = Entry 8, template temp35Ds-3, natural NTP 1 mM, Pa′ 3 mM, theoretical [1]
[5] = Entry 9, template temp35A-3, natural NTP 1 mM, Pa′ 1 mM, theoretical [0]
[6] = Entry 9, template temp35A-3, natural NTP 1 mM, Pa′ 1 mM, theoretical [1]
[7] = Entry 10, template temp35A-3, natural NTP 1 mM, Pa′ 3 mM, theoretical [0]
[8] = Entry 10, template temp35A-3, natural NTP 1 mM, Pa′ 3 mM, theoretical [1]
[9] = Entry 11, template temp35G-3, natural NTP 1 mM, Pa′ 1 mM, theoretical [0]
[10] = Entry 11, template temp35G-3, natural NTP 1 mM, Pa′ 1 mM, theoretical [1]
[11] = Entry 12, template temp35G-3, natural NTP 1 mM, Pa′ 3 mM, theoretical [0]
[12] = Entry 12, template temp35G-3, natural NTP 1 mM, Pa′ 3 mM, theoretical [1]
[13] = Entry 25, template DNA12, natural NTP 3 mM, Pa′ 3 mM, theoretical [6]
[14] = Entry 27, template DNAcont4, natural NTP 3 mM, Pa′ 3 mM, theoretical [6]
[15] = Entry 32, template DNA11, natural NTP 3 mM, Pa′ 3 mM, theoretical [4]
[16] = Entry 33, template DNA12, natural NTP 3 mM, Pa′ 3 mM, theoretical [4]
[17] = Entry 35, template DNAcont4, natural NTP 3 mM, Pa′ 3 mM, theoretical [4]

Chain of T7 RNA polymerase (P00573 whole entry): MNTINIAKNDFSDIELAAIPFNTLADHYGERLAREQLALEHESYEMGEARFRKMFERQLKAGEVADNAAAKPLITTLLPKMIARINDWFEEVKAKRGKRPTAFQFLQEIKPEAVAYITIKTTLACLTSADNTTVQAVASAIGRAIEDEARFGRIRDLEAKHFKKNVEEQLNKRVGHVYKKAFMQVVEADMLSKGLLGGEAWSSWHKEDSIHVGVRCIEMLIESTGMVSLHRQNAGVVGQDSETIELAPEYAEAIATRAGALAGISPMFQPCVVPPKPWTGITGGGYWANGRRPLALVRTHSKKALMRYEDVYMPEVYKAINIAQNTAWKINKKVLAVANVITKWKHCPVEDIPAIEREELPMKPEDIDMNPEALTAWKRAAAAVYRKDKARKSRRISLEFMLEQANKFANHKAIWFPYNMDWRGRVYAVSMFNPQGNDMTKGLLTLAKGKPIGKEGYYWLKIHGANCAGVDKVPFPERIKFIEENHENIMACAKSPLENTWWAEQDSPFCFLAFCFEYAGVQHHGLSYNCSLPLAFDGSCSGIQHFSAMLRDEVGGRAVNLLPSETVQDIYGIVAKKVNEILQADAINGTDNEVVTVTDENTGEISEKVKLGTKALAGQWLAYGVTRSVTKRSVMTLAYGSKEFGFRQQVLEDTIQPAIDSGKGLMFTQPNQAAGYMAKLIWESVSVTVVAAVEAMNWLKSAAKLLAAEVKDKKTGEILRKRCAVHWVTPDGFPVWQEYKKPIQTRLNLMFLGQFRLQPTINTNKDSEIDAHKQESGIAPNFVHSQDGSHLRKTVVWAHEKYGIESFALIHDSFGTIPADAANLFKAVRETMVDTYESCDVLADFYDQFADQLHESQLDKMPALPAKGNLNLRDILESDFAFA
Protocol: Transcription (20 μl) was accomplished in 40 mM Tris-HCl buffer (pH 8.0) containing 24 mM MgCl2, 2 mM spermidine, 5 mM DTT, 0.01% Triton X-100, 1-3 mM each natural NTP, 0-3 mM Pa′TP, 0-3 mM DsTP, 10 mM GMP, 2 μM template DNA (for 17-mer transcript synthesis) or 0.5 μM template DNA (for tRNA transcript synthesis), and 2.5 units/μl T7 RNA polymerase (TAKARA). […] For nucleotide composition analysis in transcripts (Non-patent Documents 17 and 33), the transcripts were internally labeled with 2 μCi [α-^32P]UTP or [α-^32P]ATP (Amersham). After the transcription, the products were digested with 0.75 units of RNase T2 at 37° C. for 2 hours in 10 μl of 15 mM sodium acetate buffer (pH 4.5). For 17-mer analysis, 0.05 A260 units of E. coli tRNA (Sigma) was added to the digestion reaction solution. The digestion products were analyzed by 2D-TLC (HPTLC plate, 100×100 mm, Merck). The developing solvents used for the first and second dimensions were isobutyric acid-ammonia-water (66:1:33 v/v/v) and isopropyl alcohol-HCl-water (70:15:15 v/v/v or 75:15:10 v/v/v for Pa′ transcripts), respectively. Spots of the labeled nucleotides on the TLC plate were analyzed with a bio-imaging analyzer.
The internally ^32P-labeled transcripts were digested with Rnase T2, and the resulting labeled nucleoside 3′-monophosphates were analyzed by 2D thin-layer chromatography (2D-TLC).

In the case of `CC#Cc1cc(C=O)n([C@@H]2O[C@H](COP(=O)(O)OP(=O)(O)OP(=O)(O)O)[C@@H](O)[C@H]2O)c1` [Pa′TP, 4-Propynyl-1-(β-D-ribofuranosyl)pyrrole-2-carbaldehyde 5′-triphosphate], the “Composition of nucleotide incorporated as 5′ neighbor of A: Cp” value (“Composition … of A: Cp” below) [1] is reported as 0.01 [0], the “Composition of nucleotide incorporated as 5′ neighbor of A: Up” value (“Composition … of A: Up” below) [1] is reported as 0.02 [0] and the “Composition of nucleotide incorporated as 5′ neighbor of A: Ap” value (“Composition … of A: Ap” below) [2] is reported as 1.03 [1]. For the same compound, the “Composition of nucleotide incorporated as 5′ neighbor of A: Np (Pa′p)” value (“Composition … of A: Np (Pa′p)” below) [2] was 0.95 [1], the “Composition of nucleotide incorporated as 5′ neighbor of A: Gp” value (shortened to “Composition … of A: Gp”) (Entry 7, template temp35Ds-3, natural NTP 1 mM, Pa′ 1 mM, theoretical [2]) was 2.00 [2] and the “Composition … of A: Cp” value [3] was 0.01 [0]. For the same compound, the “Composition … of A: Up” value [3] was 0.02 [0], the “Composition … of A: Ap” value [4] was 1.01 [1] and the “Composition … of A: Np (Pa′p)” value [4] was 0.97 [1]. The “Composition … of A: Gp” value (Entry 8, template temp35Ds-3, natural NTP 1 mM, Pa′ 3 mM, theoretical [2]) was 1.99 [2], the “Composition … of A: Cp” value [5] was “n.d. [0]” and the “Composition … of A: Np (Pa′p)” value [5] was “n.d. [0]”. The “Composition … of A: Ap” value [6] was 0.99 [1], the “Composition … of A: Up” value [6] was 1.03 [1] and the “Composition … of A: Gp” value (Entry 9, template temp35A-3, natural NTP 1 mM, Pa′ 1 mM, theoretical [2]) was 1.98 [2]. For the same compound, the “Composition … of A: Cp” value [7] was 0.01 [0], the “Composition … of A: Np (Pa′p)” value [7] was “n.d. [0]” and the “Composition … of A: Ap” value [8] was 0.99 [1]. The “Composition … of A: Up” value [8] was 1.00 [1], the “Composition … of A: Gp” value (Entry 10, template temp35A-3, natural NTP 1 mM, Pa′ 3 mM, theoretical [2]) was 1.99 [2] and the “Composition … of A: Np (Pa′p)” value [9] was “n.d. [0]”. The “Composition … of A: Up” value [9] was 0.01 [0], the “Composition … of A: Ap” value [10] was 1.01 [1] and the “Composition … of A: Cp” value [10] was 1.00 [1]. The “Composition … of A: Gp” value (Entry 11, template temp35G-3, natural NTP 1 mM, Pa′ 1 mM, theoretical [2]) was 1.98 [2], the “Composition … of A: Np (Pa′p)” value [11] was “n.d. [0]” and the “Composition … of A: Up” value [11] was 0.01 [0]. The “Composition … of A: Ap” value [12] was 1.00 [1], the “Composition … of A: Cp” value [12] was 1.01 [1] and the “Composition … of A: Gp” value (Entry 12, template temp35G-3, natural NTP 1 mM, Pa′ 3 mM, theoretical [2]) was 1.98 [2]. For the same compound, the “Composition … of A: Up” value (Entry 24, template DNA11, natural NTP 3 mM, Pa′ 3 mM, theoretical [0]) was 0.09 [0], the “Composition … of A: Np (Pa′p)” value (Entry 24, template DNA11, natural NTP 3 mM, Pa′ 3 mM, theoretical [1]) was 0.97 [1] and the “Composition … of A: Ap” value (Entry 24, template DNA11, natural NTP 3 mM, Pa′ 3 mM, theoretical [5]) was 5.08 [5]. For the same compound, the “Composition … of A: Gp” value (Entry 24, template DNA11, natural NTP 3 mM, Pa′ 3 mM, theoretical [6]) was 5.98 [6], the “Composition … of A: Cp” value (Entry 24, template DNA11, natural NTP 3 mM, Pa′ 3 mM, theoretical [7]) was 6.88 [7] and the “Composition … of A: Up” value (Entry 25, template DNA12, natural NTP 3 mM, Pa′ 3 mM, theoretical [0]) was 0.07 [0]. For the same compound, the “Composition … of A: Np (Pa′p)” value (Entry 25, template DNA12, natural NTP 3 mM, Pa′ 3 mM, theoretical [1]) was 0.98 [1], the “Composition … of A: Ap” value [13] was 6.05 [6] and the “Composition … of A: Gp” value [13] was 5.94 [6]. The “Composition … of A: Cp” value (Entry 25, template DNA12, natural NTP 3 mM, Pa′ 3 mM, theoretical [7]) was 6.96 [7], the “Composition … of A: Np (Pa′p)” value (Entry 27, template DNAcont4, natural NTP 3 mM, Pa′ 3 mM, theoretical [0]) was “n.d. [0]” and the “Composition … of A: Up” value (Entry 27, template DNAcont4, natural NTP 3 mM, Pa′ 3 mM, theoretical [1]) was 1.06 [1]. For the same compound, the “Composition … of A: Ap” value [14] was 6.04 [6], the “Composition … of A: Gp” value [14] was 6.00 [6] and the “Composition … of A: Cp” value (Entry 27, template DNAcont4, natural NTP 3 mM, Pa′ 3 mM, theoretical [7]) was 6.90 [7]. The “Composition of nucleotide incorporated as 5′ neighbor of U: Np (Pa′p)” value (from here on “Composition … of U: Np (Pa′p)”) (Entry 32, template DNA11, natural NTP 3 mM, Pa′ 3 mM, theoretical [0]) was 0.01 [0], the “Composition of nucleotide incorporated as 5′ neighbor of U: Ap” value (from here on “Composition … of U: Ap”) (Entry 32, template DNA11, natural NTP 3 mM, Pa′ 3 mM, theoretical [2]) was 2.01 [2] and the “Composition of nucleotide incorporated as 5′ neighbor of U: Gp” value (shortened to “Composition … of U: Gp”) [15] was 3.98 [4]. For the same compound, the “Composition of nucleotide incorporated as 5′ neighbor of U: Up” value (“Composition … of U: Up” below) [15] was 4.00 [4], the “Composition of nucleotide incorporated as 5′ neighbor of U: Cp” value (from here on “Composition … of U: Cp”) (Entry 32, template DNA11, natural NTP 3 mM, Pa′ 3 mM, theoretical [5]) was 5.01 [5] and the “Composition … of U: Np (Pa′p)” value (Entry 33, template DNA12, natural NTP 3 mM, Pa′ 3 mM, theoretical [0]) was 0.01 [0]. For the same compound, the “Composition … of U: Ap” value (Entry 33, template DNA12, natural NTP 3 mM, Pa′ 3 mM, theoretical [2]) was 2.00 [2], the “Composition … of U: Cp” value [16] was 4.05 [4] and the “Composition … of U: Gp” value [16] was 3.94 [4]. For the same compound, the “Composition … of U: Up” value [16] was 4.01 [4], the “Composition … of U: Np (Pa′p)” value (Entry 35, template DNAcont4, natural NTP 3 mM, Pa′ 3 mM, theoretical [0]) was “n.d. [0]” and the “Composition … of U: Ap” value (Entry 35, template DNAcont4, natural NTP 3 mM, Pa′ 3 mM, theoretical [2]) was 2.02 [2]. The “Composition … of U: Gp” value [17] was 4.00 [4], the “Composition … of U: Up” value [17] was 3.97 [4] and the “Composition … of U: Cp” value (Entry 35, template DNAcont4, natural NTP 3 mM, Pa′ 3 mM, theoretical [5]) was 5.01 [5].
